The record followed here is US7078059B2, “Treatment of bone diseases” (Shire Holdings AG, priority 2000, dated 2006).

Experiment [1] relates to mouse bone marrow derived osteoprogenitor cells. The experiment is described as follows: In vitro osteoblast differentiation assay (cellular alkaline phosphatase). The format is cell-based. Conditions: LA number = ng/ml lanthanum; for Effect on osteoblast differentiation, in words: lanthanum (III) ion = 100-15000 ng/ml, 17-estradiol 10^−10 M; for Relative specific activities of intracellular alkaline phosphatase, Mean ± SD / Relative specific activities of intracellular alkaline phosphatase, replicates 1-8 / Relative specific activities of intracellular alkaline phosphatase, replicates 1-4 / Relative specific activities or intracellular alkaline phosphatase, Mean ± SD / Relative specific activities or intracellular alkaline phosphatase, replicates 1-6: relative to mean of baseline group, 8 days; for Relative specific activities of intracellular alkaline phosphatase, Mean ± SD / Relative specific activities of intracellular alkaline phosphatase, replicates 1-8 / Relative specific activities of intracellular alkaline phosphatase, replicates 1-4 / Relative specific activities or intracellular alkaline phosphatase, Mean ± SD / Relative specific activities or intracellular alkaline phosphatase, replicates 1-6 / Combined results on osteoblast differentiation (relative specific ALP activity), Mean ± SD: Control = Baseline+10^−10 M 17-estradiol; for Relative specific activities or intracellular alkaline phosphatase, Mean ± SD / Relative specific activities or intracellular alkaline phosphatase, replicates 1-6: second osteoblast differentiation assay; for Combined results on osteoblast differentiation (relative specific ALP activity), Mean ± SD: tables 8-10 combined, number 18. The source says:
We have established a culture model in which mouse bone marrow derived osteoprogenitor cells first proliferate and then differentiate to osteoblasts capable of forming mineralized bone nodules (Qu et al. 1998, Qu et al. 1999). We confirmed this by following the expression of several markers of the osteoblastic phenotype and by studying the morphology of cultures at light and electron microscopic level. […] Thus, this culture system fulfills requirements of an in vitro model useful for studying differentiation of osteoprogenitor cells into bone synthesizing osteoblasts. […] Animals were killed by cervical dislocation. Both femora were removed and the soft tissues were detached aseptically. Metaphyses from both ends were cut off and bone marrow cells were collected by flushing the diaphysis with culture medium: phenol red-free-α-modified essential medium (α-MEM (Gibco BRL, Paisley, UK)). […] The cells were cultured for 6 days and half of the media […] days. […] Cells were washed with warm PBS and adherent cells were detached using trypsin-EDTA. […] The test substances were added at the beginning of the secondary culture without estrogen, and every time when the medium was changed. The number of osteoblasts formed was determined by measuring cellular alkaline phosphatase (ALP) activity in the culture. […] Louis, Mo., USA), and overnight freezing. ALP activity was determined colorimetrically using p-nitrophenylphosphate as substrate at pH 9.7 and determining the optical density at 405 nm. In parallel, protein contents of the wells were determined by the BIO-RAD protein assay, and the specific ALP activity is expressed as units/mg protein. […] Osteoblast differentiation was determined by measuring cellular alkaline phosphatase (ALP) activities and total protein amounts from cell lysates. The ALP activities were divided with the corresponding protein amounts to obtain specific activities of ALP. The results are shown as relative specific activities obtained by dividing each individual value with the mean value of the baseline group.

Another experiment relates to mature osteoblasts. The experiment is described as follows: In vitro bone formation assay (calcium deposition into bone nodules). Conditions: LA number = ng/ml lanthanum; for Effect on bone formation activity of mature osteoblasts, in words: lanthanum (III) / lanthanum (III) ion = all concentrations tested, 100 to 15,000 ng/ml, 17-estradiol 10^−10M; for Calcium deposition, Mean ± SD / Calcium deposition, replicates 1-6 / Calcium deposition, replicates 1-4 / Calcium deposition, replicates 1-8: calcium released from bone nodules after HCl extraction; for Calcium deposition, Mean ± SD / Calcium deposition, replicates 1-6 / Calcium deposition, replicates 1-4 / Calcium deposition, replicates 1-8 / Combined results on bone formation activity of mature osteoblasts (calcium released), Mean ± SD: Control = Baseline+10^−10M 17β-estradiol; for Combined results on bone formation activity of mature osteoblasts (calcium released), Mean ± SD: tables 13 and 14 combined, number 14. The format is cell-based, mouse. As for the experimental part: The activity of mature osteoblasts can be determined by quantifying their ability to form mineralized bone matrix. This is done by demineralizing the formed bone matrix, and determining the amount of calcium released. Thus, this culture system fulfills requirements of an in vitro model useful for studying the bone formation activity of mature osteoblasts. […] At the end of the culture, the amount of calcium deposited during the culture period was determined, and the amount of bone formation (calcium deposition) calculated. […] Extracts of 50 μl were complexed with 1 ml determined o-cresol-phthalein-complexon. The colorimetric reaction was determined at 570 nm in a spectrophotometer. Absolute calcium concentrations were determined by comparison with a calibrated standard provided by the vendor. In this study, the effect of lanthanum carbonate on bone formation was tested. […] The amount of bone formation was determined by measuring the amount of calcium deposited into bone nodules formed by mature osteoblasts. The results are shown as the amount of calcium released (mmol/L) from the bone nodules after HCl extraction. The baseline values are too low to show the results using relative amounts as was done in the other assays.

The test system of experiment [2] is osteoclasts cultured on bone slices. Kind of experiment: In vitro bone resorption assay (osteoclasts on bovine bone slices, CrossLaps). It counts as cell-based, rat. The following applies: for Relative medium CrossLaps amounts per osteoclast, replicates 1-6 / Relative medium CrossLaps amounts per osteoclast, Mean ± SD: first bone resorption assay; for Relative medium CrossLaps amounts per osteoclast, replicates 1-6 / Relative medium CrossLaps amounts per osteoclast, Mean ± SD / Relative medium CrossLaps amounts per osteoclasts, Mean ± SD / Relative medium CrossLaps amounts per osteoclasts, replicates 1-6: relative to mean of baseline group, 72 hours; for Relative medium CrossLaps amounts per osteoclast, replicates 1-6: LA number = ng/ml lanthanum in culture medium; for Relative medium CrossLaps amounts per osteoclast, replicates 1-6 / Relative medium CrossLaps amounts per osteoclast, Mean ± SD / Relative medium CrossLaps amounts per osteoclasts, Mean ± SD / Relative medium CrossLaps amounts per osteoclasts, replicates 1-6 / Combined results on bone resorption (relative medium CrossLaps per osteoclast), Mean ± SD: Control = Baseline+10 nM bafilomycin Al; for Relative medium CrossLaps amounts per osteoclasts, Mean ± SD / Relative medium CrossLaps amounts per osteoclasts, replicates 1-6: second bone resorption assay; for Combined results on bone resorption (relative medium CrossLaps per osteoclast), Mean ± SD: tables 1 and 2 combined, number 12. The source says:
The method of osteoclast culture on bone slices was originally described by Boyde et al. (1984) and by Chambers et al. (1984). For cell culture, we used a method slightly modified from the original methods (Lakkakorpi et al. 1989, Lakkakorpi and Väänänen, 1991). The rate of bone resorption in the cultures was originally determined by counting the number of resorption pits on each bone or dentine slice using a microscope with phase contrast objectives (Sundquist et al. 1990). Later, the pits were visualized using Wheat Germ Agglutinin lectin that specifically binds to the resorbed area in bone (Selander et al. 1994), making it possible to quantify the total resorbed area using a microscope and computer-assisted image analysis system (Laitala and Väänänen 1994, Hentunen et al. 1995). We used a commercially available method (CrossLaps for cultures, Osteometer Biotech, Herlev, Denmark) to detect the amount of collagen cross-links released into the culture medium as an index of the bone resorption rate (Bagger et al., 1999).
The study protocol uses a method where osteoclasts are cultured on bone slices and allowed to resorb bone. The system is ideal for determining the effect of drug candidates on the bone resorbing activity of osteoclasts. Drug candidates are added into the cell cultures at the beginning of the culture period, and the osteoclasts allowed to resorb bone for 3 days. The amount of bone resorbed during the culture period is determined and compared to the amount of bone resorbed in control cultures (those cultured in the absence of drug candidates).
Transverse 0.1 mm thick slices of cortical bone were cut from the diaphysis of fresh bovine femurs (Atria Slaughterhouse, Oulu, Finland) using a low-speed diamond saw, cleaned by ultrasonication in multiple changes of sterile distilled water, and stored at 4° C. before use. Long bones were removed from 1-day-old rat pups killed by decapitation. […] The resulting suspension of dispersed cells and bone fragments was agitated using a plastic pipette. Larger fragments were allowed to sediment for a few seconds and the supernatant was seeded onto the bone slices pre-wetted in the medium. After a settling period of 30 minutes at 37° C., the bone slices were washed by dipping in fresh medium, and then transferred to wells in 24-well culture dishes containing osteoclast culture medium. The bone slices were incubated in a humidified atmosphere of 95% air and 5% carbon dioxide at 37° C. for 72 hours.
After the culture period, the amount of bone resorption was determined by measuring the amount of collagen cross-links released into the culture medium using a commercial kit (CrossLaps for cultures, Osteometer Biotech) according to the manufacturer s instructions. The number of osteoclasts in each culture was determined by microscopic counting of the amount of TRAP-positive multinuclear cells, and the results are given as the number of collagen cross-links released per one osteoclast.
In the bone resorption assay, the amount of medium CrossLaps (nM) released into the culture medium was determined and the number of osteoclasts in the corresponding cultures calculated. The medium CrossLaps amounts were divided with the osteoclast numbers in the corresponding cultures, and the results are given on Table 1 as relative medium CrossLaps amounts per osteoclasts. The relative values were obtained by dividing each individual value with the mean value of the baseline group.

[3] abbreviates: first osteoblast differentiation assay.
Where [4] appears, read: preliminary osteoblast differentiation assay.
[5] abbreviates: preliminary bone formation assay.

Where “and” joins values, the source holds several entries; their conditions need not be identical. Identical values can stand only once. Entries after “also recorded” stand apart in the source; their conditions may differ.

With `O.O.O.O.O=C([O-])[O-].O=C([O-])[O-].O=C([O-])[O-].[La+3].[La+3]` [LA 100, lanthanum carbonate tetrahydrate], in experiment [1], the “Effect on osteoblast differentiation, in words” value is “activated osteoblast differentiation significantly; also recorded: activate both bone formation and osteoblast differentiation”; the “Relative specific activities or intracellular alkaline phosphatase, Mean ± SD” value turned out to be 1.14 ± 0.22; the “Relative specific activities or intracellular alkaline phosphatase, replicates 1-6” value is 0.91 and 0.94 and 1.34 and 1.20 and 1.00 and 1.43; the “Combined results on osteoblast differentiation (relative specific ALP activity), Mean ± SD” value was 1.10 ± 0.18 (*). Also, in experiment [1] (setting [3]), the “Relative specific activities of intracellular alkaline phosphatase, Mean ± SD” value came out at 1.05 ± 0.17; the “Relative specific activities of intracellular alkaline phosphatase, replicates 1-8” value was 0.95 and 1.04 and 0.98. Besides, in experiment [1] (setting [4]), the “Relative specific activities of intracellular alkaline phosphatase, Mean ± SD” value is recorded as 1.15 ± 0.13; the “Relative specific activities of intracellular alkaline phosphatase, replicates 1-4” value was 0.98 and 1.29 and 1.19 and 1.12. Moreover, in the experiment with mature osteoblasts, the “Effect on bone formation activity of mature osteoblasts, in words” value is “activate both bone formation and osteoblast differentiation”; the “Combined results on bone formation activity of mature osteoblasts (calcium released), Mean ± SD” value came to 0.09 ± 0.10 mmol/L. Besides, in the experiment on mature osteoblasts (first bone formation assay), the “Calcium deposition, Mean ± SD” value is 0.11 ± 0.11 mmol/L; the “Calcium deposition, replicates 1-6” value is 0.04 mmol/L and 0.17 mmol/L and 0.01 mmol/L and 0.27 mmol/L and 0 mmol/L and 0.14 mmol/L. For the same molecule, in the experiment with mature osteoblasts (setting [5]), the “Calcium deposition, Mean ± SD” value is 0.00 ± 0.00 mmol/L and the “Calcium deposition, replicates 1-4” value worked out at 0 mmol/L. Further, in the experiment with mature osteoblasts (second bone formation assay), the “Calcium deposition, Mean ± SD” value was found to be 0.08 ± 0.11 mmol/L; the “Calcium deposition, replicates 1-8” value was 0 mmol/L (4×) and 0.28 mmol/L and 0.14 mmol/L. Moreover, the “Relative medium CrossLaps amounts per osteoclast, replicates 1-6” value in experiment [2] is 0.57 and 0.56 and 1.13 and 0.78 and 0.71 (2×). In experiment [2] (LA number = ng/ml lanthanum), the “Relative medium CrossLaps amounts per osteoclast, Mean ± SD” value came to 0.74 ± 0.21; the “Relative medium CrossLaps amounts per osteoclasts, Mean ± SD” value stood at 0.74 ± 0.21; the “Relative medium CrossLaps amounts per osteoclasts, replicates 1-6” value was 0.38 and 0.75 and 0.78 and 0.94 and 0.67 and 0.96; the “Combined results on bone resorption (relative medium CrossLaps per osteoclast), Mean ± SD” value stood at 0.74 ± 0.20.
Regarding `O.O.O.O.O=C([O-])[O-].O=C([O-])[O-].O=C([O-])[O-].[La+3].[La+3]` [LA 500, lanthanum carbonate tetrahydrate], in experiment [1], the “Effect on osteoblast differentiation, in words” value is “No significant response; also recorded: do not decrease the formulation of osteoblasts”; the “Relative specific activities or intracellular alkaline phosphatase, Mean ± SD” value is 0.93 ± 0.14; the “Relative specific activities or intracellular alkaline phosphatase, replicates 1-6” value is 0.88 and 0.89 and 1.10 and 1.09 and 0.75 and 0.90; the “Combined results on osteoblast differentiation (relative specific ALP activity), Mean ± SD” value was 0.94 ± 0.13. In addition, in experiment [1] (setting [3]), the “Relative specific activities of intracellular alkaline phosphatase, Mean ± SD” value was determined as 0.90 ± 0.14; the “Relative specific activities of intracellular alkaline phosphatase, replicates 1-8” value is 0.95 and 0.96 and 0.62. Further, in experiment [1] (setting [4]), the “Relative specific activities of intracellular alkaline phosphatase, Mean ± SD” value was found to be 1.01 ± 0.07; the “Relative specific activities of intracellular alkaline phosphatase, replicates 1-4” value was 0.96 and 0.98 and 0.99 and 1.11. Moreover, in the experiment with mature osteoblasts, the “Effect on bone formation activity of mature osteoblasts, in words” value is on record as “stimulate bone formation” and the “Combined results on bone formation activity of mature osteoblasts (calcium released), Mean ± SD” value came to 0.68 ± 0.56 mmol/L. In addition, in the experiment on mature osteoblasts (first bone formation assay), the “Calcium deposition, Mean ± SD” value was 0.77 ± 0.54 mmol/L; the “Calcium deposition, replicates 1-6” value was 0.44 mmol/L and 0.15 mmol/L and 1.32 mmol/L and 0.27 mmol/L and 1.31 mmol/L and 1.10 mmol/L. Further, in the experiment with mature osteoblasts (setting [5]), the “Calcium deposition, Mean ± SD” value is recorded as 0.02 ± 0.05 mmol/L; the “Calcium deposition, replicates 1-4” value is 0 mmol/L (3×) and 0.09 mmol/L. Moreover, in the experiment on mature osteoblasts (second bone formation assay), the “Calcium deposition, Mean ± SD” value was found to be 0.62 ± 0.61 mmol/L; the “Calcium deposition, replicates 1-8” value was 0 mmol/L and 0.02 mmol/L and 0.46 mmol/L and 1.17 mmol/L. The “Effect on bone resorption / bone resorbing activity of mature osteoclasts, in words” value in experiment [2] (LA number = ng/ml lanthanum, lanthanum (III) ion = any of the concentrations tested (100-15000 ng/ml), bafilomycin Al 10 nM) was “dose-dependent inhibition of bone resorption”. The “Relative medium CrossLaps amounts per osteoclast, replicates 1-6” value in experiment [2] is 1.04 and 0.58 and 1.38 and 0.75 and 0.88 and 0.63. In addition, in experiment [2] (LA number = ng/ml lanthanum), the “Relative medium CrossLaps amounts per osteoclast, Mean ± SD” value is listed as 0.88 ± 0.30; the “Relative medium CrossLaps amounts per osteoclasts, Mean ± SD” value is recorded as 0.88 ± 0.65; the “Relative medium CrossLaps amounts per osteoclasts, replicates 1-6” value was 0.50 (2×) and 2.14 and 1.03 and 0.47 and 0.63; the “Combined results on bone resorption (relative medium CrossLaps per osteoclast), Mean ± SD” value came out at 0.88 ± 0.48.
